Experimental data taken from publication PMC3684613 (PLoS ONE, 2013).

Tested on: P. falciparum 3D7
Test: DAPI stain fluorescent high content imaging assay, P. falciparum 3D7 (confirmatory screen, Avery)
Settings: Plasmodium falciparum; for EC50: 3D7, read-out: EC50_nM; for inhibition of growth at 5 µM: 3D7, read-out: percent_inh @ 5 uM; for inhibition of growth at 2 µM: 3D7, read-out: percent_inh @ 2 uM

Row | SMILES | EC50 | inhibition of growth at 5 µM | inhibition of growth at 2 µM
1 | CC(C)CNC(=O)c1c(N)n(CCc2ccccc2F)c2nc3ccccc3nc12 [MMV396744] | 832 nM | – | –
2 | Cc1sc(NC(=O)c2ccco2)c(C(c2cccnc2)N2CCC(Cc3ccccc3)CC2)c1C (stereo not drawn) [MMV396663] | 1020 nM | – | –
3 | CCOC(=O)c1c(C)n(-c2ccccc2)c2ccc(OC(=O)c3cc(OC)c(OC)c(OC)c3)cc12 [MMV396664] | 615 nM | – | –
4 | COc1ccc(Nc2nc(NCc3ccccc3)c3ccccc3n2)cc1 [MMV000963] | 589 nM | – | –
5 | CCOc1ccc(N2C(N)=NC(N)=NC2(C)C)cc1 [MMV667486] | – | – | 92%
6 | COc1ccc2c(c1)C1(Nc3ccccc3-c3nc4ccccc4n31)C(=O)N2 (stereo not drawn) [MMV396749] | 928 nM | – | –
7 | O=C(NC1CCN(Cc2ccccc2)CC1)c1cc2nc(-c3ccc(Cl)s3)cc(C(F)(F)F)n2n1 [MMV396635] | 959 nM | – | –
8 | O=c1nc(C=Cc2ccc(Cl)cc2)oc2ccccc12 [MMV007977] | 995 nM | 76% | –
9 | CN1CCN(c2nc(Nc3ccc(O)cc3)nc3ccccc23)CC1 [MMV000986] | 1430 nM | – | –
10 | COC(=O)c1ccc(Cl)c2c1C1C=CCC1C(c1cccc3ccccc13)N2 (stereo not drawn) [MMV667489] | 939 nM | – | –
11 | COc1cc(C(=O)Nc2nc3c(cc4c5c(cccc53)CC4)s2)cc(OC)c1OC [MMV396665] | 898 nM | – | –
12 | COc1ccc2nc(C)cc(Nc3ccc(Cl)cc3)c2c1 [MMV007875] | 2000 nM | – | 95%
13 | CN(C)c1ccc(N2C(N)=NC(N)=NC2(C)C)cc1 [MMV667487] | – | – | 95%
14 | COc1ccccc1N1C(=N)SC(=Cc2ccc(OCc3ccccc3F)cc2)C1=O [MMV007199] | 478 nM | 95% | –
15 | COc1cccc(C2(C)Nc3ccccc3-c3nc4ccccc4n32)c1 (stereo not drawn) [MMV396719] | 1150 nM | – | –
16 | CC1(c2ccccc2)Nc2ccccc2-c2nc3ccccc3n21 (stereo not drawn) [MMV396715] | 1730 nM | – | –
17 | Oc1c(C(Nc2ccccn2)c2cccc(Oc3ccccc3)c2)ccc2cccnc12 (stereo not drawn) [MMV665814] | 1010 nM | 97% | –
18 | COc1ccc(C=C2SC(Nc3ccccc3)=NC2=O)cc1 [MMV665836] | 551 nM | 71% | –

Row | SMILES | EC50 | inhibition of growth at 5 µM | inhibition of growth at 2 µM
19 | Nc1nc(Nc2cccc(F)c2)nc2ccccc12 [MMV080034] | 1000 nM | – | –
20 | COc1cc2cc(C(=O)Nc3ccccc3)c(N)nc2cc1OC [MMV006767] | – | 99% | –
21 | OC(CNCC1CCCO1)Cn1c2ccc(Cl)cc2c2cc(Cl)ccc21 (stereo not drawn) [MMV396736] | 1060 nM | – | –
22 | Cc1cc(N2CCCC2)nc(Nc2ccc(NC(=O)CCc3ccccc3)cc2)n1 [MMV396669] | 1070 nM | – | –
23 | N=c1n(CCN2CCCCC2)c2ccccc2n1CC(=O)c1ccc(Cl)c(Cl)c1 [MMV396723] | 1240 nM | – | –
24 | Nc1ccn([C@@H]2O[C@H](CO)[C@@H](O)[C@H]2O)c(=O)n1 [MMV638723] | 385 nM | – | –
25 | COc1ccc(-c2nc(N3CCN(C(=O)C4CCCCC4)CC3)c3c4c(sc3n2)CCCC4)cc1 [MMV396594] | 1060 nM | – | –
26 | CCOc1cc(CNC(C)C(O)c2ccccc2)cc(Cl)c1OCC (stereo not drawn) [MMV396633] | 1240 nM | – | –
27 | C[n+]1c2ccccc2nc2ccc(NCCO)cc21 [MMV396693] | 296 nM | – | –
28 | Cc1cc(NC(=O)c2cccc(C(F)(F)F)c2)n(-c2nc(-c3ccc4c(c3)OCO4)cs2)n1 [MMV396681] | 959 nM | – | –
29 | Cc1ccc(Nc2nc(N)c3ccccc3n2)cc1Cl [MMV011522] | 4000 nM | – | 96%
30 | CN(N=O)C1=C(NC2CCCCC2)C(=O)c2ccccc2C1=O [MMV667492] | 1190 nM | – | –
31 | COc1ccc2nc(C)cc(Nc3ccccc3O)c2c1 [MMV274073] | 686 nM | – | –
32 | N#Cc1nc(Cc2cccc3ccccc23)oc1N1CCN(C(c2ccccc2)c2ccccc2)CC1 [MMV396726] | 1160 nM | – | –
33 | CCOc1cc2c(cc1OCC)C(c1cc(Cl)ccc1O)NCC2 (stereo not drawn) [MMV000478] | 746 nM | 98% | –
34 | CCOc1ccccc1CN1CCc2nc3cc(C(C)(C)C)nn3c(O)c2C1 [MMV396595] | 1010 nM | – | –
35 | Cc1cccc(-n2ncc3c(=O)[nH]c(-n4nc(C)cc4NC(=O)c4cc5ccccc5o4)nc32)c1 [MMV403679] | 929 nM | – | –
36 | O=C1C2=C(Nc3ccccc3SC2c2ccccc2)c2ccccc21 (stereo not drawn) [MMV645672] | 890 nM | – | –

Further lines, with some results ahead:

Row | EC50 | SMILES | inhibition of growth at 5 µM | inhibition of growth at 2 µM
37 | 718 nM | CCN(CC)CCn1c(=N)n(CC(O)c2ccc(Cl)c(Cl)c2)c2ccccc21 (stereo not drawn) [MMV000248] | 97% | –
38 | 1100 nM | CCOC(=O)c1cnc2ccc(OC)cc2c1Nc1ccc(N2CCN(C)CC2)cc1 [MMV000704] | – | –
39 | 1190 nM | CN1CCN(c2ncnc3c2[nH]c2ccc(Cl)cc23)CC1 [MMV396704] | – | –
40 | 218 nM | O=C(CSc1nccn2nc(-c3ccccc3)cc12)Nc1cc(C(F)(F)F)ccc1Cl [MMV396678] | – | –
41 | 1160 nM | CC(C)(C)CC(C)(C)NCC(O)COc1ccc(Cl)cc1Cl (stereo not drawn) [MMV396794] | – | –
42 | 89.9 nM | COc1ccc(-c2cc3c(SCC(=O)Nc4cc(C(F)(F)F)ccc4Cl)nccn3n2)cc1 [MMV396679] | – | –
43 | 1330 nM | O=C(NNc1cc(N2CCCC2)nc(N2CCCC2)n1)c1ccccc1 [MMV396770] | – | –
44 | 406 nM | CCN(CC)CCNc1ncnc2c1[nH]c1ccc(Cl)cc12 [MMV396703] | – | –
45 | 1230 nM | COc1ccc(C2c3ccc4ccccc4c3Oc3ncn(CCCN(C)C)c(=N)c32)cc1 (stereo not drawn) [MMV667491] | – | –
46 | 433 nM | O=C(NCC(c1ccsc1)N1CCCCCC1)c1ccc(C(F)(F)F)cc1 (stereo not drawn) [MMV396672] | – | –
47 | 1050 nM | CCOc1c(Cl)cc(CNCC(O)c2ccccc2)cc1OC (stereo not drawn) [MMV396632] | – | –
48 | 693 nM | CCn1nc(-c2ccc(C(=O)OC)cc2)nc2c(=O)n(C)c(=O)nc1-2 [MMV306025] | – | –
49 | 477 nM | COc1ccc(-c2c(C)nn3c(N)c(C#N)cnc23)cc1OC [MMV396797] | – | –
50 | 85.7 nM | Cc1cc(C)cc(Nc2cc(C)nc3nc(C(F)(F)F)nn23)c1 [MMV011259] | – | –
51 | 1790 nM | COc1ccc(C2c3ccc4ccccc4c3Oc3ncn(CCCn4ccnc4)c(=N)c32)cc1OC (stereo not drawn) [MMV667490] | – | –
52 | 92.8 nM | Cc1ccc(-c2cc3c(SCC(=O)Nc4cc(C(F)(F)F)ccc4Cl)nccn3n2)cc1 [MMV396680] | – | –
53 | 1390 nM | COc1cccc(Cn2c(Oc3ccccc3)nc3c2c(=O)n(C)c(=O)n3C)c1 [MMV396705] | – | –
54 | 326 nM | Oc1ccc(-c2nc(-c3ccc4oc5ccc(-c6[nH]c(-c7ccc(O)cc7)nc6-c6ccccc6)cc5c4c3)c(-c3ccccc3)[nH]2)cc1 [MMV000753] | 98% | –
55 | 941 nM | CCOc1ccc(C2N(C)c3ccccc3N2C)cc1 [MMV075490] | 72% | –
56 | 591 nM | COc1ccc(C=C2SC(Nc3ccc(F)cc3)=NC2=O)c(OC)c1 [MMV084434] | 92% | –
57 | 1180 nM | Cc1sc(NC(=O)c2ccccc2)c(C(c2cccs2)N2CCN(c3ccccc3)CC2)c1C (stereo not drawn) [MMV396652] | – | –
58 | 611 nM | Oc1ccccc1CN1CCN(C(c2ccccc2)c2ccccc2)CC1 [MMV011795] | 97% | –
59 | 1010 nM | O=C(Nc1cccc(C2=NCCN2)c1)Nc1cccc(C2=NCCN2)c1 [MMV665810] | 83% | –
60 | 1060 nM | Brc1ccc(Nc2nc3ccccc3nc2Nc2ccc(Br)cc2)cc1 [MMV007224] | 98% | –
61 | 916 nM | COc1ccc(CCN2C(=O)c3[nH]nc(-c4cc(Cl)c(C)cc4O)c3C2c2ccccc2F)cc1 (stereo not drawn) [MMV396717] | – | –
